# Columns and labels:
# [1] = target: T1, human JAK3 (Homo sapiens, UniProt P52333); test: Alphascreen tyrosine kinase enzyme assay, JAK3 kinase domain; type: biochemical; conditions: read-out: JAK3 IC50_nM
# T1 construct: The kinase domain of human JAK3 was amplified; GST (N); made in house; host or cells: Sf9 insect cells (baculovirus)
# Procedure: (§1) For screening purposes, compounds (in 100% DMSO) were warmed at 37 degrees for at least 20 minutes before use. A […] stock was initially made in assay buffer, where the final concentration of DMSO was 0.3%. The stocks were then diluted in 384 well Optiplates (Packard) where the final concentration of the compound was […].
# The kinase domain of human JAK3 was amplified from U937mRNA using the polymerase chain reaction with the following primers: […]
# The JAK3 PCR products were cloned into the pDest20 destination expression vector (Gibco). The JAK3 plasmid was then transformed into competent DH10Bac cells (Gibco), and the recombinant baculovirus was prepared via Sf9 insect cell transfection.
# (§2) Baculovirus preparations from each of the constructs were infected into either one or five liters of Sf9 cells (Invitrogen) grown in SF-900 medium (Invitrogen) to a cell density of approximately 1-2×10^6 cells/ml. Cells were infected with virus at a MOI of 0.8-3.0. Cells were harvested and lysed. Tyrosine kinase domains were purified by affinity chromatography on a glutathione-agarose column (Scientifix Pty. Ltd. catalog #: GSH-200).
# (§3) Kinase assays were performed in 384 well Optiplates (Packard) using an Alphascreen Protein Tyrosine Kinase PY100 detection kit The compounds were pre-incubated with affinity purified PTK domain in the presence of phosphotyrosine assay buffer (10 mM HEPES, pH 7.5, 100 mM MgCl2, 25 mM NaCl, […] and 0.1% Tween 20) for 20 minutes. The compounds were then incubated with substrate in the presence of ATP. The substrate used was susbtrate-1 with the sequence biotin-EGPWLEEEEEAYGWMDF-NH2 [SEQ. ID. NO. 13] (final concentration […]). For HCK 80 μm ATP was used and incubated for 60 minutes. Alphascreen phosphotyrosine acceptor beads followed by streptavidin donor beads at a concentration of 1/100 in stop buffer were added to each well under subdued light and incubated for 2-3 hours., The Alphascreen plates were read on a Packard Fusion Alpha instrument.
# [2] = target: T2, human JAK2 (Homo sapiens, UniProt O60674); test: Alphascreen tyrosine kinase enzyme assay, JAK2 kinase domain; type: biochemical; conditions: read-out: JAK2 IC50_nM
# T2 construct: The kinase domain of human JAK2 was amplified; GST (N); made in house; host or cells: Sf9 insect cells (baculovirus)
# Procedure: as §1
# The kinase domain of human JAK2 was amplified from U937mRNA using the polymerase chain reaction with the following primers: […]
# The JAK2 PCR products were cloned into the pDest20 destination vector (Gibco). The JAK2 plasmid was then transformed into competent DH10Bac cells (Gibco), and the recombinant baculovirus was prepared via Sf9 insect cell transfection.
# as §2, §3
# [3] = target: T3, BaF3 TELJAK2 cells (BafT_J2) (Homo sapiens, UniProt O60674); test: Cellular screening, BaF3 TEL:JAK2 cells, Alamar Blue; type: cell-based; conditions: 40 hr, read-out: BafT_J2 IC50_nM
# T3 construct: fused on or other part: TEL (ETV6) N-terminal part, coding nucleotides 1-487, serves as the oligomerising partner; It is fused through a Sal I site to the JAK2 kinase domain and expressed from pTRE2 in BaF3 cells bearing pTET-off; P41212 (Transcription factor ETV6)
# Procedure: For screening purposes, compounds were diluted in 96 well plates at a concentration of 20 μM. Plates were warmed at 37° C. for 30 minutes before the assay was performed.
# The coding region encompassing nucleotides 1-487 of TEL was amplified by PCR using the oligonucleotides STEL (5′-GGAGGATCCTGATCTCTCTCGCTGTGAGAC-3′) [SEQ ID NO 14] and 3TEL (5′-AGGC GTCGACTTCTTCTTCATGGTTCTG-3′) [SEQ ID NO 15] and U937 mRNA as a template. A […] restriction site was incorporated into the STEL primer, and a Sal I restriction site was incorporated into the 3TEL primer. The regions encompassing the kinase domain of JAK2 (nucleotides 2994-3914; JAK2F 5′-ACGC GTCGACGGTGCCTTTGAAGACCGGGAT-3′ [SEQ ID NO 16]; JAK2R 5′-ATAGTTTAGCGGCCGCTCAGAATGAAGGTCATTT-3′) [SEQ ID NO 17] and JAK3 (nucleotides 2520-3469; JAK3F 5′-GAAGTCGACTATGCCTGCCAAGACCCCACGATCTT-3′) [SEQ ID NO 18] were generated by PCR using Taq DNA polymerase (Gibco/BRL) and […] as a template. A Sal I restriction site was incorporated into the forward primer of JAK2 and JAK3, a Not I site was incorporated into the JAK2 reverse primer and a Xba I site was added to the reverse primer of JAK3.
# A TEL/Jak2 fusion was generated by digestion of the TELPCR product with BamH I/Sal I restriction enzymes, digestion of the JAK2 PCR product with Sal I/Not I restriction enzymes, followed by ligation and subcloning of the ligation product into the mammalian expression Vector pTRE 2 (Clontech), which was prepared by digestion with BamH I-Not I restriction enzymes, to give the TEL/Jak2 fusion plasmid pTELJAK2.
# The growth factor dependant myelomonocytic cell line BaF3 bearing the pTET-off plasmid (Clontech) was transfected with either pTELJAK2 or pTELJAK3, and the transfected cells were selected for growth-factor independent cell growth. The BaF3 wild-type cells were cultured in DMEM containing 10% FCS, 10% WEHI 3B conditioned medium. The BaF3 TELJAK cells ([…]) were cultured in DMEM 10% Tet-System Approved FBS (without WEHI 3B conditioned medium).
# Cell suspensions were prepared by harvesting cells from culture (the cells used in this test were in late log phase growth with high viability.) Cells were diluted in the appropriate growth medium, as described above, to 1.1× final concentration (from 50,000 cell/mL to 200,000 cell/mL, depending on cell line).
# Compounds to be tested were added (10 μL, 10× final concentration) to a flat bottomed 96-well plate. The cellular suspension (90 μL per well) was then added, and the plate incubated for 40 hr at 37° C., 5% CO2. Alamar Blue 10 μL per well was added and the plates returned to the incubator for a further 4-6 hours. The plates were then read at 544 nm.
# T1 sequence (P52333 822-1111 limits assumed): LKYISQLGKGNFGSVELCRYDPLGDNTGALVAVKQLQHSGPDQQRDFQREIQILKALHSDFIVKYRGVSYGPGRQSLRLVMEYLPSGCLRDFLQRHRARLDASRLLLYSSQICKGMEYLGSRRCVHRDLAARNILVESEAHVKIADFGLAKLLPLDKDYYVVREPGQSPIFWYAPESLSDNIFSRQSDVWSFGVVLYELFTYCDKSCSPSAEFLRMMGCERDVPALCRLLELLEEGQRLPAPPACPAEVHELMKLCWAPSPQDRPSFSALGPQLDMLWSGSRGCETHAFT
# T3 sequence (O60674 whole entry, change not shown, the tested form may be a part): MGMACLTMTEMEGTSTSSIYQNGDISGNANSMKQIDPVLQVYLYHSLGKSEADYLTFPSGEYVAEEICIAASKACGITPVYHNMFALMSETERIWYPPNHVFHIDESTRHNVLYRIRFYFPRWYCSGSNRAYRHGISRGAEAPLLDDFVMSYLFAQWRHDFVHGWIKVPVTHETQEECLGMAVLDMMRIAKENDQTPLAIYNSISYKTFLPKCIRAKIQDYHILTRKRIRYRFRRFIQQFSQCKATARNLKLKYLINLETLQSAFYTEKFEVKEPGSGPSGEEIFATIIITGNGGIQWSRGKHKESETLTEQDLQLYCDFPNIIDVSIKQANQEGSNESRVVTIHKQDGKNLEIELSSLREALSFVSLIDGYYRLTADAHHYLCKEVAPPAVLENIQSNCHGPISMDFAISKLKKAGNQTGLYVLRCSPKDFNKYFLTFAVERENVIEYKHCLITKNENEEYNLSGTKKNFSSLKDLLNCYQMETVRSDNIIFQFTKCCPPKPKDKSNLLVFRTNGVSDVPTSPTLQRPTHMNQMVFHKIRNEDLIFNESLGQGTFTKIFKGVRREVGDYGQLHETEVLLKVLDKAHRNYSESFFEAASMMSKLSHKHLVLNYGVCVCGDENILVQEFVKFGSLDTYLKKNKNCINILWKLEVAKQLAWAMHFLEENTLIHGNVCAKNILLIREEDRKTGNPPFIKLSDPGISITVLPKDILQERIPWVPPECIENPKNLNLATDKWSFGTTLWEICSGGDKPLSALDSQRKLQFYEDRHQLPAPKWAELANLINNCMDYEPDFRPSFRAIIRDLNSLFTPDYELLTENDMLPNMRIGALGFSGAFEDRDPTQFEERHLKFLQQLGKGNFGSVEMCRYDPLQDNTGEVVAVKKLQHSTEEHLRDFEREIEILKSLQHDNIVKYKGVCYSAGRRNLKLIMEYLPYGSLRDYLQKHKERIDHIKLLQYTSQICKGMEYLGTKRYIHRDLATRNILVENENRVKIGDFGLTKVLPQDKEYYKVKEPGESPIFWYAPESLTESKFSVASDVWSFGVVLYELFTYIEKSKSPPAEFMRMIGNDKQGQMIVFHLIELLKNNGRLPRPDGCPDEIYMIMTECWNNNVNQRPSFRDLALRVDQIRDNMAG
# T2 sequence (O60674 849-1124 limits assumed): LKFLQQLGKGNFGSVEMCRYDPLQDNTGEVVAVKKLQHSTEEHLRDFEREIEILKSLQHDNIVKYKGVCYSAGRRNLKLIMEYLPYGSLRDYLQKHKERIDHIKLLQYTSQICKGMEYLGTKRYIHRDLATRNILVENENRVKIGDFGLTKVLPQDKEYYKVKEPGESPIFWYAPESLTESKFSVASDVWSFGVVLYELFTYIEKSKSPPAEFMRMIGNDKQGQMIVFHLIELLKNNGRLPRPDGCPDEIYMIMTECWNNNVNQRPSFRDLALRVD
SMILES,IC50 [1] [nM],IC50 [2] [nM],GI50 [3] [nM]
"C=CC(=O)Nc1ccc(Sc2nc(Nc3ccc(N4CCOCC4)cc3)ncc2Br)cc1 [Compound 306, N-(4-(5-bromo-2-(4-morpholinophenylao)pyrimidin-4-ylthio)phenyl)acrylamide]",< 100,> 1000,> 20000
"C=CC(=O)Nc1ccc(Sc2nc(Nc3cccc(N4CCN(C)CC4)c3)ncc2C)cc1 [Compound 243, N-(4-(5-methyl-2-(3-(4-methylpiperazin-1-yl)phenylao)pyrimidin-4-ylthio)phenyl)acrylamide]",< 100,> 1000,< 5000
"C=CC(=O)Nc1ccc(Sc2nc(Nc3ccc(N4CCC(CO)CC4)cc3)ncc2C)cc1 [Compound 286, N-(4-(2-(4-(4-(hydroxymethyl)piperidin-1-yl)phenylao)-5-methylpyrimidin-4-ylthio)phenyl)acrylamide]",< 100,> 1000,> 20000
"C=CC(=O)Nc1ccc(Sc2nc(Nc3ccc(N4CCC(CO)CC4)cc3)ncc2Br)cc1 [Compound 253, N-(4-(5-bromo-2-(4-(4-(hydroxymethyl)piperidin-1-yl)phenylao)pyrimidin-4-ylthio)phenyl)acrylamide]",< 100,> 1000,< 20000
"C=CC(=O)Nc1ccc(Sc2nc(Nc3ccc(OCCCN(CC)CC)cc3)ncc2C)cc1 [Compound 291, N-(4-(2-(4-(3-(diethylao)propoxy)phenylao)-5-methylpyrimidin-4-ylthio)phenyl)acrylamide]",< 100,> 1000,< 5000
"C=CC(=O)Nc1ccc(Sc2nc(Nc3ccc(OCCN4CCOCC4)cc3)ncc2C)cc1 [Compound 290, N-(4-(5-methyl-2-(4-(2-morpholinoethoxy)phenylao)pyrimidin-4-ylthio)phenyl)acrylamide]",< 100,> 1000,< 20000
"CCOC(=O)/C=C/C(=O)Nc1ccc(Sc2nc(Nc3ccc(N4CCOCC4)cc3)ncc2C)cc1 [Compound 385, (E)-ethyl 4-(4-(5-methyl-2-(4-morpholinophenylao)pyrimidin-4-ylthio)phenylao)-4-oxobut-2-enoate]",< 100,> 1000,> 20000
"Cc1cnc(Nc2ccc(N3CCOCC3)cc2)nc1Sc1ccc(N2C(=O)C=C(Br)C2=O)cc1 [Compound 382, 3-bromo-1-(4-(5-methyl-2-(4-morpholinophenylao)pyrimidin-4-ylthio)phenyl)-1H-pyrrole-2,5-dione]",< 100,> 1000,< 20000
"Cc1cc(N)ccc1Sc1nc(Nc2ccc(N3CCOCC3)cc2)ncc1C [Compound 162, 4-(4-ao-2-methylphenylthio)-5-methyl-N-(4-morpholinophenyl)pyrimidin-2-ae]",< 100,< 1000,< 20000
"C=CC(=O)Nc1ccc(Sc2nc(Nc3cccc(CO)c3)ncc2C)cc1 [Compound 280, N-(4-(2-(3-(hydroxymethyl)phenylao)-5-methylpyrimidin-4-ylthio)phenyl)acrylamide]",< 100,> 1000,< 20000
"C=CC(=O)Nc1ccc(Sc2nc(Nc3ccc(OC)c(NS(C)(=O)=O)c3)ncc2C)cc1 [Compound 293, N-(4-(2-(4-methoxy-3-(methylsulfonamido)phenylao)-5-methylpyrimidin-4-ylthio)phenyl)acrylamide]",< 100,> 1000,< 5000
"C=CC(=O)Nc1ccc(Sc2ccnc(Nc3ccc(N4CCOCC4)cc3)n2)cc1 [Compound 25, N-(4-(2-(4-morpholinophenylamino)pyrimidin-4-ylthio)phenyl)acrylamide]",< 100,> 1000,> 20000
"C=CC(=O)Nc1ccc(Sc2nc(Nc3ccc(N4CCCC(O)C4)cc3)ncc2C)cc1 (centres unmarked) [Compound 299, N-(4-(2-(4-(3-hydroxypiperidin-1-yl)phenylao)-5-methylpyrimidin-4-ylthio)phenyl)acrylamide]",< 100,> 1000,< 20000
"Cc1cnc(Nc2ccc(N3CCOCC3)cc2)nc1Sc1ccc(NC(=O)/C=C\C(=O)O)cc1 [Compound 380, (Z)-4-(4-(5-methyl-2-(4-morpholinophenylao)pyrimidin-4-ylthio)phenylao)-4-oxobut-2-enoic acid]",< 100,> 1000,> 20000
"Cc1cnc(Nc2cccc(N3CCN(C)CC3)c2)nc1Sc1ccc(N)cc1 [Compound 245, 4-(4-aophenylthio)-5-methyl-N-(3-(4-methylpiperazin-1-yl)phenyl)pyrimidin-2-ae]",< 500,< 500,< 1000
"Cc1cnc(Nc2ccc(N3CCOCC3)cc2)nc1Sc1c(C)cc(N)cc1C [Compound 165, 4-(4-ao-2,6-dimethylphenylthio)-5-methyl-N-(4-morpholinophenyl)pyrimidin-2-ae]",< 500,> 1000,> 20000
"N#Cc1ncn(Cc2ccc(Sc3ccnc(Nc4ccc(N5CCOCC5)cc4)n3)cc2)c1C#N [Compound 201, 1-(4-(2-(4-morpholinophenylao)pyrimidin-4-ylthio)benzyl)-1H-imidazole-4,5-dicarbonitrile]",< 100,> 1000,< 5000
"OCc1ccc(Sc2ccnc(Nc3ccc(N4CCOCC4)cc3)n2)cc1 [Compound 67, (4-(2-(4-morpholinophenylao)pyrimidin-4-ylthio)phenyl)methanol]",< 500,< 500,< 20000
"N#CCC(=O)Nc1cccc(Sc2ccnc(Nc3ccc(N4CCOCC4)cc3)n2)c1 [Compound 24, N-(3-(2-(4-morpholinophenylamino)pyrimidin-4-ylthio)phenyl)-2-cyanoacetamide]",,< 500,< 20000

# Reference: patent US8846704B2, “Thiopyrimidine-based compounds and uses thereof” (YM Biosciences Austraila Pty Ltd, priority 2007, dated 2014)
